The source of these data is patent US9884854B2, “N-[(pyrimidinylamino)propanyl]-and N[(pyrazinylamino)proppanyl]arylcarboxamides” (Boehringer Ingelheim International GmbH, priority 2016, dated 2018).

Molecules are shown by their SMILES.

In one data set the target is T1, human Orexin 1 receptor (Homo sapiens, UniProt O43613).
T1 construct: stably expressing the full-length human Orexin 1 receptor and the aequorin photoprotein; expressed in transfected cells; host or cells: CHO-K1 (CHO-K1/hOx1), co-expressing aequorin
T1 sequence (O43613 1-425): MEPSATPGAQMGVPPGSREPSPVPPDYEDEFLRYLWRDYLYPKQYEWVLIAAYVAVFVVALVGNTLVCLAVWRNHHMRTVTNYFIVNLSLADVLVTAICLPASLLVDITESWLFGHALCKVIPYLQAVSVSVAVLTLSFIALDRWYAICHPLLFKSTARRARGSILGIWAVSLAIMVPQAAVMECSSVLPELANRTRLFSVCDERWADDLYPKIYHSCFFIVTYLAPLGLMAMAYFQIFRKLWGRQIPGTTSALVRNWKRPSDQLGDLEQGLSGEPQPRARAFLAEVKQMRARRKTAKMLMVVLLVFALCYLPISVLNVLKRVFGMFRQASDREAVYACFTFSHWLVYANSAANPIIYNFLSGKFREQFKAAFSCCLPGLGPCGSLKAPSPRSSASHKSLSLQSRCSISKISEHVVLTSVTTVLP
The experiment in a line: Assay A: OX1R IP1 (in vitro OX1R potency). The format is cell-based. The note with it: for Kb: 50 nM Orexin A concentration. The source says: Activation of the orexin receptors expressed in cell lines results in an increase in intracellular IP3 concentration. IP1, a downstream metabolite of IP3, accumulates in cells following receptor activation and is stable in the presence of LiCl. Using Homogeneous Time-Resolved Fluorescence technology with Lumi4-Tb cryptate (commercially available from Cisbio Bioassay.) and a suitable fluorescence plate reader. […] This technique is used to characterize pharmacological modification of the orexin receptors.
A. In Vitro Testing of OX1R Potency: OX1R IP1
IP1 measurements are performed in CHO-K1 cells stably expressing the full-length human Orexin 1 receptor and the aequorin photoprotein. Cells are cultivated in Ham's nutrient mixture F12 medium with 10% fetal calf serum, in a 37° C., 95% humidity and 5% CO2 incubator. The CHO-K1/hOx1 cell mass is expanded to larger cell numbers. The cells are obtained as frozen cells in cryo-vials and stored until use at −150° C. […] In preparation for the assay, 24 hours before the assay, the cells are thawed at 37° C. and immediately diluted with cell culture medium. After centrifugation, the cell pellet is re-suspended in medium and then distributed into the assay plates with a density of 10000 cells/25 μL per well. The plates are incubated for one hour at room temperature to reduce edge effects before they are incubated for 24 hours at 37° C./5% CO2. Compounds are prepared by an 8-point serial dilution in DMSO and a final dilution step into assay buffer (HBSS with 20 mM HEPES, 0.1% BSA and 50 mM LiCl, pH 7.4) to ensure a final DMSO concentration of 1% in the assay.
On the day of the assay, cells in the plate are washed twice with 60 μL assay buffer (20 μL buffer remained in the wells after washing), followed by adding 5 μL per well of compounds diluted in assay buffer. After 15 minutes of incubation at room temperature 5 μL per well of Orexin A peptide (final concentration: 0.5 nM, and/or 50 nM) dissolved in assay buffer is added to the assay plate. The assay plate is incubated for 60 minutes at 37° C. Then 5 μl per well of Anti-IP1-Cryptate Tb solution and 5 μl per well of IP1-d2 dilution are added and the plate is incubated for a further 60 minutes light protected at room temperature. […] 8-point four parametric non-linear curve fitting and determination of IC50 values and Hill slopes is performed using a regular analysis software e.g. AssayExplorer (Accelrys).
Kb values from Assay A (OX1R) and Assay B (OX2R) can then provide a selectivity ratio which is independent of the agonist (Orexin A) concentration.

A short description of data set [1]: Assay C: metabolic stability in human liver microsomes (Human MST). The class given is in vitro ADME. As to conditions: pooled human liver microsomes, pH 7.6, 1 μM compound, 37° C., read-out: Human MST t1/2. The text has this: Stability in human liver microsomes refers to the susceptibility of compounds to biotransformation in the context of selecting and/or designing drugs with favorable pharmacokinetic properties. The primary site of metabolism for many drugs is the liver. Human liver microsomes contain the cytochrome P450s (CYPs), and thus represent a model system for studying drug metabolization in vitro. Enhanced stability in human liver microsomes is associated with several advantages, including increased bioavailability and longer half-life, which can enable lower and less frequent dosing of patients. Thus, enhanced stability in human liver microsomes is a favorable characteristic for compounds that are to be used for drugs.
C. Assessment of Metabolic Stability in Human Liver Microsomes (Human MST)
The metabolic stability of the compounds according to the invention may be investigated as follows:
The metabolic degradation of the test compound is assayed at 37° C. with pooled human liver microsomes. The final incubation volume of 100 μL per time point contains TRIS buffer pH 7.6 at room temperature (0.1 M), MgCl2 (5 mM), microsomal protein (1 mg/mL) and the test compound at a final concentration of 1 μM. Following a short pre-incubation period at 37° C., the reactions are initiated by addition of beta-nicotinamide adenine dinucleotide phosphate, reduced form (NADPH, 1 mM), and terminated by transferring an aliquot into solvent after different time points. After centrifugation (10000 g, 5 min), an aliquot of the supernatant is assayed by LC-MS/MS for the amount of parent compound. The half-life (t1/2) is determined by the slope of the semi-logarithmic plot of the concentration-time profile.

For `CCN(C(=O)c1ccccc1-n1nccn1)[C@@H](C)CNc1ncc(C(F)(F)F)cn1` [Example 1], on human Orexin 1 receptor, the “OX2R Kb/OX1R Kb” value stood at 404 and the Kb amounted to 0.048 nM. For the same compound, the half-life at 1 μM in data set [1] was 2 h.

For the compound `CCN(C(=O)c1nc(C)ccc1-n1nccn1)[C@@H](C)CNc1ncc(C(F)(F)F)cn1` [Example 9], the “OX2R Kb/OX1R Kb” value on human Orexin 1 receptor was 310. The compound further had a Kb at human Orexin 1 receptor of 0.106 nM. Further, the higher potency at human Orexin 1 receptor (versus Example 46 in WO2016/034882) is given as above 10 fold; at human Orexin 1 receptor (versus Example 73 in WO2016/034882), “approximately 3 fold”. Besides, the half-life at 1 μM in data set [1] amounted to 1.67 h.

For `CCN(C(=O)c1cnc(C)nc1-c1ccccc1)[C@@H](C)CNc1ncc(C(F)(F)F)cn1` [Example 17], at human Orexin 1 receptor, the “OX2R Kb/OX1R Kb” value came to 2500 and the Kb stood at 0.0216 nM. Moreover, the half-life at 1 μM in data set [1] is above 2 h.

For the compound `CCN(C(=O)c1cccc(F)c1-n1nccn1)[C@@H](C)CNc1ncc(C(F)(F)F)cn1` [Example 18], at human Orexin 1 receptor, the “OX2R Kb/OX1R Kb” value is on record as 352 and the Kb worked out at 0.0512 nM. The half-life at 1 μM in data set [1] was above 2 h.
